According to patent US8354381B2, “Peptide compositions for oral care systems” (E I du Pont de Nemours and Company, priority 2009, dated 2013):
Where no end group is shown, it is not given here. The star is where a group is joined. Biotin = O=C1N[C@H]2[C@H](CS[C@H]2CCCCC(=O)*)N1

How the values were obtained:
Pellicle Surface = conditions: read-out: MB50; biotinylated peptide, 30 min in vivo pellicle on enamel, from Scatchard plots
Experimental: The pellicle coated enamel substrates were removed from the wax backing and placed in well plates with the pellicle surface exposed as in Example 5. […] The blocking buffer was removed by aspirating the liquid out of each well. […] The samples were incubated for 30 min with slow shaking at 37° C. The non-binding peptide was removed by washing 6 times with PBST. […] The conjugate solution was removed and was washed 4 times with PBST.
Each enamel substrate was removed from the well and washed again in a 15-mL test tube with 10 mL of PBST. Each enamel substrate was then mounted in a clean well plate with only the enamel surface exposed.

[1] = system: pellicle coated enamel substrates; conditions: 20 μM biotinylated peptide, streptavidin-HRP, normalized to DenP03, three replicates
Experimental: A total of 20 synthetic peptides were manufactured using sequences obtained from Table 6. Peptides were obtained from SynBioSci Corp. (Livermore, Calif.) and included an additional sequence (SSRP; SEQ ID NO: 118) at the N-terminus and biotin labeled lysine at the C-terminus.
Enamel substrates were cut into approximately 7 mm squares and mounted on wax mounting for incubation in the mouth for 30 min to form a pellicle coated surface. The pellicle coated enamel substrates were removed from the wax backing and placed in well plates with the pellicle surface exposed as in Example 5. Each pellicle coated substrate was incubated for 1 h at room temperature (˜22° C.) with 1 mL of blocking buffer, consisting of 1 mg/mL BSA in PBST (Pierce BUPH™ #28372 with 0.1% TWEEN® 20). The blocking buffer was removed by aspirating the liquid out of each well. The tube was rinsed 2 times with wash buffer consisting of PBST. The wells were filled with 500 μL of 20 μM peptide solution which was prepared by diluting in blocking buffer. The samples were incubated for 30 min with slow shaking at 37° C. The non-binding peptide was removed by washing 6 times with PBST. Then, 500 μL of horseradish peroxidase/streptavidin conjugate (Pierce #22127), diluted 1:2000 in PBST, was added and incubated for 1 h at room temperature (˜22° C.). The conjugate solution was removed and was washed 4 times with PBST.
Each enamel substrate was removed from the well and washed again in a 15-mL test tube with 10 mL of PBST. Each enamel substrate was then mounted in a clean well plate with only the enamel surface exposed. A 1:1 solution of TMB substrate and H2O2 (200 μL) was added to each well and the color was allowed to develop for between 10 to 20 min, typically for 15 min, at room temperature (˜22° C.). Then, 100 μL of solution from each well was transferred to a 96 well reading plate containing stop solution (100 μL of 2 M H2SO4) in each well. The A450 was measured using a microplate spectrophotometer (Molecular Devices, Sunnyvale, Calif.). […] Each sequence was tested with three replicate enamel coated pellicle substrates.

[2] = Peptide-mediated adhesion of streptavidin-coated gold particles on enamel, SEM; format: binding, bovine; conditions: 20 μM peptide, then 50 nm streptavidin gold nanoparticles; SEM at 10000X
Experimental: Bovine enamel incisors were obtained from SE Dental (Baton Rouge, La.). Teeth are sectioned and cut into enamel slabs approx. 5 mm on each side using a DREMEL® saw with a diamond blade. The enamel blocks are cleaned and place each in a plastic microcentrifuge tube.
Each enamel block was incubated for 45 min in phosphate buffered saline with 0.1% TWEEN® 20 (PBST) and 1 mg/mL bovine serum albumin (BSA) at room temperature (22° C.). All blocks were rinsed with PBST twice while vortexing in the microcentrifuge tube. The peptides were first diluted to 10 mM in water and then a working concentration of 20 μM was prepared in PBST with 1 mg/mL BSA. Each sample was exposed to the peptide solution or a no peptide buffer control for 30 min at room temperature. The samples were slowly rotated during incubation. The enamel blocks were removed from the peptide solution and washed four times with PBST with vortexing.
50 nm gold nanoparticles functionalized with streptavidin were obtained from Nanocs Inc (New York, N.Y.) and diluted to 0.006% wt in PBST with 1 mg/mL BSA. All enamel samples were then exposed to the gold nanoparticle solution for 1 hr at room temperature with slow rotation. […]
Each enamel sample was examined with Electron Microscopy. […] Particles were counted per micrograph and the density of particle coverage was compared (Table 14).

[3] = system: pellicle-coated enamel substrates; assay: Tooth whitening with sequentially applied peptide and silica-coated TiO2, colour measurement; set-up: species or system bovine; conditions: 20 μM peptide 30 min, then 1% silica-coated TiO2 30 min; three replicate teeth
Experimental: Silica-coated rutile titanium dioxide (Luce II WW) was obtained from US Cosmetics Corp. (Dayville, Conn.). A 12 wt % solution of the pigment was prepared with Millipore water. The solution was dispersed by horn sonication using a Branson Sonifier 150 at 10 W. The solution was sonicated in an ice bath for 6 min total, with 2 min sonication intervals. A working solution of 1 wt % in 10 mM sodium phosphate buffer at pH7.2 was made for application to peptide coated enamel. A 0.01% solution of this dispersion diluted in the same buffer was measured on a Malvern Zetasizer Nano dynamic light scattering instrument.
Bovine enamel incisors were obtained from SE Dental (Baton Rouge, La.). Teeth were sectioned and cut into enamel slabs approx. 7 mm on each side using a DREMEL® saw with a diamond blade. The enamel slabs were cleaned and lightly polished to remove surface debris. The enamel was pretreated with a mixture of coffee and tea in order to stain to a color similar to human stained teeth. Each enamel block was then mounted on wax mounting and sterilized with ethylene oxide. […] The mounted enamel blocks were brushed with a toothbrush and a 1:2 dilution of COLGATE® MAXFRESH® toothpaste (Colgate-Palmolive Co., New York, N.Y.) and then reinserted into the mouth for 1 minute. […] Each pellicle coated enamel slab was measured for color using a Konica-Minolta 2600d integrating sphere spectrophotometer.
Peptides listed in Table 15 were dissolved into pH 7.2 PBS buffer at a concentration of 20 μM. Three replicate teeth were used for each experimental condition. Each tooth was incubated with peptide solution for 30 min or buffer alone as a control. The enamel blocks were removed from the peptide solution and rinsed with PBS buffer. The enamel blocks were then incubated in the 1% solution of silica-coated TiO2 for 30 min. The enamel blocks were removed, rinsed with 10 mM phosphate buffer and blotted dry. Each substrate was measured for color (L, a*, b*, C*, h) values. The total color difference, Delta E*ab and the Metric Hue Difference, Delta H*ab, for the whitening process were calculated using equations (1) and (2) below: Delta E*ab=((L*1−L*2)^2+(a*1−a*2)^2+(b*1−b*2)^2)^1/2 (1) Delta H*ab=(2(C*1C*2−a*1a*2−b*1b*2))^1/2 (2) where L*=the lightness variable, a* and b* are the chromaticity coordinates and C* is the chroma of CIELAB colorspace as defined by the International Commission of Illumination (CIE) and described in ASTM D2244-09b and subscript 1 denotes the initial color value and subscript 2 denotes the final color value.

| Molecule | EC50 (Pellicle Surface) [µM] | O.D.450 (normalized) [1] | Particles per μm^2 at 10000X [2] [Particles per μm^2] | Delta E*ab Avg [3] | Delta H*ab Avg [3] |
| --- | --- | --- | --- | --- | --- |
| SSRPHKNENIMQYNVNDRWHITPAK(Biotin) [DenP32-A] | 25 | 1.135 |  |  |  |
| SSRPTTYHYKNIYQESYQQRNPAVK(Biotin) [DenP3-A] | 28 | 1.000 |  |  |  |
| TTYHYKNIYQESYQQRNPAVHHHHHH [DenP03-D] |  |  | 0.23 |  |  |
| TTYHYKNIYQESYQQRNPAVK(Biotin) [DenP03-C] |  |  | 1.75 |  |  |
| PSSSRPTTYHYKNIYQESYQQRNPAVGPEEAAKKEEAAKKPASSRPTTYHYKNIYQESYQQRNPAVGPHHHHHH (peptide) PSSSRPTTYHYKNIYQESYQQRNPAVGPEEAAKKEEAAKKPASSRPTTYHYKNIYQESYQQRNPAVGPHHHHHH |  |  |  | 6.78 | 1.60 |
| PSSRPTTYHYKNIYQESYQQRNPAVGPEEAAKKEEAAKKPASSRPTTYHYKNIYQESYQQRNPAVGSSGPGSSKQPNKQPNKQPNKQPNKQPNKQPNKQPNKQPNKQPNGPHHHHHH (peptide) PSSRPTTYHYKNIYQESYQQRNPAVGPEEAAKKEEAAKKPASSRPTTYHYKNIYQESYQQRNPAVGSSGPGSSKQPNKQPNKQPNKQPNKQPNKQPNKQPNKQPNKQPNGPHHHHHH |  |  |  | 10.70 | 2.93 |
